Literature values, collected in patent US20210038510A1, “FORMULATIONS OF KINASE INHIBITORS AND PROSTANOIDS” (PULMOKINE, INC., priority 2018, published 2021).

Columns and labels:
[1] = test system: rat monocrotaline model of PAH
[2] = test system: patients with advanced PAH
[3] = test system: PDGFRβ isoform versus PDGFRα isoform

For `Cc1ccc(NC(=O)c2ccc(CN3CCN(C)CC3)cc2)cc1Nc1nccc(-c2cccnc2)n1` [Imatinib, imatinib], the “Right ventricular systolic pressure (RVSP)” value [1] is given as “decreases”, the Survival [1] is given as “improves survival” and the Cardiopulmonary hemodynamics [2] is given as “improves cardiopulmonary hemodynamics”. The “Potency against the PDGFRβ isoform compared with the PDGFRα isoform” value [3] was “less potent”.
